Assay results published in patent publication US6586596B2, “Acetylcholine enhancers” (priority 1998, dated 2003).

Tests used:
[1] = test system: BF-lesioned rats; assay: Water maze, BF lesion-induced deficit in spatial learning; settings: oral; Cm.A 0.3, 1.0 and 3.0 mg/kg/day, THA 1.0 mg/kg/day, E2020 0.3 and 1.0 mg/kg/day
Experimental: For each training trial, the rat was placed in the water (22° C.) such that the animal faced the wall of a circular pool (150 cm in diameter, 45 cm in height), and started at one of five starting points (selected randornly). In each trial, the latency period to escape onto the hidden platform (fixed in the middle of one quadrant, 2 cm below the surface of water) was recorded. These procedures were repeated once or twice a day during the experimental period.

[2] = test system: cycloheximide-induced amnesia; assay: Passive avoidance, cycloheximide-induced memory impairment; assay type: in vivo, male Wistar rats; settings: oral, 30 minutes before acquisition trial; cycloheximide 1.5 mg/kg s.q.
Experimental: Cutoff latency was set at 600 seconds.
Rats were treated s.q. with cycloheximide (1.5 mg/kg), a protein synthesis inhibitor, immediately after the electric shock.

[3] = target: T1, peripheral 5-HT3 receptor (Rattus norvegicus, UniProt P35563); assay: 5-HT-evoked von Bezold-Jarish Effect (B.J.E.) in anesthetized rats; assay type: in vivo; settings: Cm.A 3 to 10 mg/kg
T1 construct: from tissue; host or cells: whole anesthetized rat (peripheral receptors)
T1 sequence (P35563 24-483): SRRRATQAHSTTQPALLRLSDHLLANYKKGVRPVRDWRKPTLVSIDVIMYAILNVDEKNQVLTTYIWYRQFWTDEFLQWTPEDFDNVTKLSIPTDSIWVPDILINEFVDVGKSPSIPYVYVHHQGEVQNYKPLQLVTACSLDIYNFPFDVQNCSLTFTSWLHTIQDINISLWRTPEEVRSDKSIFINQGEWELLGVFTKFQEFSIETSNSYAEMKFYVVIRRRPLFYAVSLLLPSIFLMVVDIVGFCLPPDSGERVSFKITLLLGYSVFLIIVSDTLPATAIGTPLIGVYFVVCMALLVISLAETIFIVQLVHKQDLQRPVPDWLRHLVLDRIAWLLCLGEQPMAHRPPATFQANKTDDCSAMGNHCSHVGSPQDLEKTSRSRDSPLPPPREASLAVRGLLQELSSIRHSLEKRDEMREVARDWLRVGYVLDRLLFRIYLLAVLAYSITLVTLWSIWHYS
Experimental: A bolus i.v. injection of serotonin (5-HT) (20 μg/kg) caused reflex bradycardia transiently (von Bezold—Jarish Effect: B.J.E.) via activation of peripheral 5-HT3 receptor in anesthetized rats.

COc1c2c(nc3ccccc13)CN(CCC1CCN(Cc3ccccc3)CC1)C2=O [Cm.A, 2-[2-(1-benzylpiperizin-4-yl)ethyl]-2,3-dihydro-9-methoxy-1H-pyrrolo[3,4-b]quinolin-1-one hemifumarate]
deficit of spatial learning (escape latency) [1]: improved the deficit of spatial learning | latency in retention trial, cycloheximide-induced amnesia [2]: prolonged the shortened latency induced by cycloheximide in a nondose dependent manner | inhibition of 5-HT-evoked B.J.E. (reflex bradycardia) ([3]; i.v. pretreatment, E2020 0.1~1 mg/kg, 5-HT 20 μg/kg i.v.): inhibited B.J.E. dose dependently | blood pressure, heart rate and other signs ([3]; i.v., THA 10 mg/kg, E2020 higher than 1 mg/kg, data not shown): without any change on blood pressure and heart rate
